From patent publication US11890279B2, “Quinolines that modulate SERCA and their use for treating disease” (Neurodon Corporation, priority 2020, dated 2024)

Tests used:
[1] = test system: HeLa cells overexpressing BI-1; assay: Effect of a SERCA agonist on [Ca2+]ER (ER cameleon); assay type: cell-based; details: 24 hrs treatment, ER cameleon YFP/CFP
Description: To directly measure ER Ca^2+ content, a genetically encoded Ca^2+ indicator, ER cameleon, was used. HeLa cells were transfected with ER-cameleon encoding plasmid for 2 days before analysis. Cells were treated with a test compound for 24 hrs and imaged in Ca^2+-free HBSS upon addition of thapsigargin to deplete ER stores. Emission ratio imaging of the ER cameleon was accomplished using a 430/24 excitation filter, 450-nm dichroic mirror, and two emission filters (475/40 for CFP and 535/25 for YFP). The fluorescence ratio of YFP/CFP is a measure of relative ER Ca^2+ levels.

APP-PS1 mice = assay: Aβ deposition, thioflavin S staining; assay type: in vivo, mouse; details: 10 mg/kg ip, 4 weeks, vs saline
Description: Mice were transcardially perfused with ice-cold PBS (3 mL) followed by 4% paraformaldehyde (5 mL). Brains were extracted and fixed overnight in 30% sucrose-cryoprotectant solution. Coronal hippocampal sections […] thick were cut on a cryostat and collected in TBS (0.1 M Tris, 0.9% saline, pH 7.4). Thioflavin S Staining: Free-floating hippocampal sections were washed with TBS (4×3 min). The sections were soaked in 0.5% thioflavin S (in 50/50 ethyl alcohol/distilled water, Sigma-Aldrich) for 10 min, followed by 2×3 min washes with 50% ethyl alcohol. Sections were washed again with TBS (2×3 min), mounted with minimal drying, and coverslipped with anti-fade mounting medium PVA-DABCO for microscopy. Confocal images of immunolabeled tissue were obtained using 4× and 10× objective lenses on the Olympus Fluoview confocal microscope. Density of amyloid plaques was quantified by averaging the percent area staining positive (thresholded above background staining, as determined by software parameters and experimenter confirmation) within the hippocampus and cortex from 3-5 sections from each experimental animal using MetaMorph Software (Molecular Devices). There were no significant differences in the intensity of background threshold values across animal strains or treatment conditions (p>0.05). The experimenter was blind to animal strain and treatment condition. […] Mice were ˜6 months of age.

SMILES: Cc1ccc2cccc(NC(=O)c3ccc(OC(C)C)cc3)c2n1 [Compound A12, 4-Isopropoxy-N-(2-methylquinolin-8-yl)benzamide]
- [Ca^2+]ER [1]: significantly restored
- amyloid plaques stained with Thioflavin S (APP-PS1 mice): reduced
